The record followed here is ChEMBL document CHEMBL3826944, “Syringaresinol induces mitochondrial biogenesis through activation of PPARβ pathway in skeletal muscle cells” (Bioorg Med Chem Lett, 2016).

For test [1], the target named is T1, Peroxisome proliferator-activated receptor delta (Homo sapiens) (UniProt Q03181).
T1 sequence (whole entry): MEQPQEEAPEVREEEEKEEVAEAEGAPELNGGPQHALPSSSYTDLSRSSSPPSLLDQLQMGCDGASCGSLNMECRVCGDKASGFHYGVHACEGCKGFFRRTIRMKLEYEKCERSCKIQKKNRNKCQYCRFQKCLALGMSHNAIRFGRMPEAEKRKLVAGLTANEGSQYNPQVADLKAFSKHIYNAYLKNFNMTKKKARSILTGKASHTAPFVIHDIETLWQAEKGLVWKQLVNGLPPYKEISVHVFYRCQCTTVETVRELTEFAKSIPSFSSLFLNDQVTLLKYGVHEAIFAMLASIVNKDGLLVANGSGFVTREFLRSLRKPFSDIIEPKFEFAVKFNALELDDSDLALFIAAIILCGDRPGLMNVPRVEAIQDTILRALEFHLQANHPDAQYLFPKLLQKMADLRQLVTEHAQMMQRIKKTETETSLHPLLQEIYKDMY
Kind of test: (§1) Activation of PPARbeta-LBD (unknown origin) assessed as fluorescein-labeled coactivator C33 recruitment by TR-FRET assay.

Test [2] deals with T2, Peroxisome proliferator-activated receptor delta (Homo sapiens, UniProt Q03181).
T2 sequence (Q03181 whole entry): T1 sequence (whole entry)
The test is described as §1.

The target in test [3] is T2, Peroxisome proliferator-activated receptor delta. Kind of test: Binding affinity to recombinant PPARbeta-LBD (254 to 441 residues) (unknown origin) expressed in Escherichia coli Rosetta2 cells by isothermal titration calorimetry.
In test [4] the test system is C2C12. In words: Induction of PPARbeta mRNA expression in mouse C2C12 myotubes at 50 uM after 24 hrs by qRT-PCR method relative to control. It is filed as functional.
The subject of test [5] is C2C12. Kind of test: Induction of PPARbeta protein expression in mouse C2C12 myotubes at 50 uM after 24 hrs by immunoblot method. In kind it is functional, cell-based.
The subject of test [6] is C2C12. Kind of test: Induction of PPARbeta mRNA expression in mouse C2C12 myotubes at <50 uM after 24 hrs by qRT-PCR method. In kind it is functional, cell-based. In general terms: In qPCR the cycle at which signal appears reflects the starting amount.
The subject of test [7] is C2C12. In words: Induction of PPARbeta protein expression in mouse C2C12 myotubes at <50 uM after 24 hrs by immunoblot method. It is filed as functional, cell-based. Background: In western blotting, separated proteins are transferred to a membrane and probed.
Test [8] has as its target T3, Peroxisome proliferator-activated receptor delta (Mus musculus) (UniProt P35396).
T3 sequence (whole entry): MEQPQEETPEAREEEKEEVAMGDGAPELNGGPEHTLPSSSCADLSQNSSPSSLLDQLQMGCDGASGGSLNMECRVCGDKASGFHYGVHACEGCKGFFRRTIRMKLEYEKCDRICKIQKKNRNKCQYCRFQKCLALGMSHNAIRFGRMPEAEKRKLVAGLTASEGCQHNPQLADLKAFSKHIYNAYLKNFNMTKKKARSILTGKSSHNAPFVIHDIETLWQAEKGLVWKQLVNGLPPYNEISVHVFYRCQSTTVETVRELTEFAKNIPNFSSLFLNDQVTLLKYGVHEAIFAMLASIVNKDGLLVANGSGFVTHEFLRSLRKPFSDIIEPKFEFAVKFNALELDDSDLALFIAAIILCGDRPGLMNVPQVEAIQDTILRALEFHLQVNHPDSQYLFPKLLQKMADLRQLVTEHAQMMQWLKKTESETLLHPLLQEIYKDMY
In words: Activation of PPARbeta in mouse C2C12 myotubes assessed as increase in PGC-1alpha mRNA level at 10 to 25 uM after 24 hrs by qRT-PCR method.

Test [9] deals with T3, Peroxisome proliferator-activated receptor delta (Mus musculus). Kind of test: Activation of PPARbeta in mouse C2C12 myotubes assessed as increase in PGC-1alpha protein expression at 10 to 25 uM after 24 hrs by immunoblot method.
Test [10] deals with C2C12. In words: Induction of mitochondrial biogenesis in mouse C2C12 myotubes assessed as increase in mitochondrial DNA content at 25 to 50 uM after 24 hrs by qRT-PCR method. In kind it is functional, cell-based.
In test [11] the test system is C2C12. In words: Induction of mitochondrial biogenesis in mouse C2C12 myotubes assessed as increase in mitochondrial density at 25 uM after 24 hrs by Mitotracker Green staining based fluorescence microscopic analysis relative to control. It is filed as functional.
Test [12] concerns C2C12. Kind of test: Induction of mitochondrial biogenesis in mouse C2C12 myotubes assessed as increase in mitochondrial density at 50 uM after 24 hrs by Mitotracker Green staining based fluorescence microscopic analysis relative to control. In kind it is functional.
Test [13] concerns C2C12. Kind of test: Upregulation of PPARbeta protein expression in PPARbeta siRNA transfected mouse C2C12 myotubes at 50 uM after 24 hrs by immunoblot method. It is filed as functional, cell-based.
The test system of test [14] is C2C12. Kind of test: Upregulation of PGC1-alpha protein expression in PPARbeta siRNA transfected mouse C2C12 myotubes at 50 uM after 24 hrs by immunoblot method relative to control. In kind it is functional, cell-based.
Test [15] has as its system C2C12. In words: Upregulation of CPT1 protein expression in PPARbeta siRNA transfected mouse C2C12 myotubes at 50 uM after 24 hrs by immunoblot method relative to control. It is filed as functional, cell-based.
The test system of test [16] is C2C12. In words: Upregulation of UCP2 protein expression in PPARbeta siRNA transfected mouse C2C12 myotubes at 50 uM after 24 hrs by immunoblot method relative to control. It is filed as functional, cell-based.
Test [17] deals with C2C12. Kind of test: Induction of mitochondrial DNA content in PPARbeta siRNA transfected mouse C2C12 myotubes at 50 uM after 24 hrs by qRT-PCR method. It is filed as functional, cell-based.
In test [18] the test system is C2C12. Kind of test: Induction of mitochondrial density in PPARbeta siRNA transfected mouse C2C12 myotubes at 50 uM after 24 hrs by Mitotracker Green staining based fluorescence microscopic analysis. It is filed as functional, cell-based.
Test [19] relates to C2C12. Kind of test: Induction of SIRT1 protein expression in mouse C2C12 myotubes at 50 uM after 24 hrs by immunoblot method. In kind it is functional, cell-based.
For test [20], the species on record is Mus musculus. In words: Activation of AMPK in mouse C2C12 myotubes assessed as increase in expression of phosphorylated AMPK at Thr-172 residue at 50 uM after 24 hrs by immunoblot method.
Test [21] concerns C2C12. Kind of test: Induction of mitochondrial DNA content in scramble siRNA transfected mouse C2C12 myotubes at 50 uM after 24 hrs by qRT-PCR method. In kind it is functional, cell-based.
Test [22] has as its system C2C12. In words: Induction of mitochondrial density in scramble siRNA transfected mouse C2C12 myotubes at 50 uM after 24 hrs by Mitotracker Green staining based fluorescence microscopic analysis. In kind it is functional, cell-based.
For test [23], the system named is C2C12. Kind of test: Upregulation of PPARbeta protein expression in PPARbeta siRNA transfected mouse C2C12 myotubes at 1 uM after 24 hrs by immunoblot method. It is filed as functional, cell-based.
The subject of test [24] is C2C12. Kind of test: Upregulation of PGC1-alpha protein expression in PPARbeta siRNA transfected mouse C2C12 myotubes at 1 uM after 24 hrs by immunoblot method relative to control. In kind it is functional, cell-based.
The test system of test [25] is C2C12. Kind of test: Upregulation of CPT1 protein expression in PPARbeta siRNA transfected mouse C2C12 myotubes at 1 uM after 24 hrs by immunoblot method relative to control. In kind it is functional, cell-based.
For test [26], the system named is C2C12. In words: Upregulation of UCP2 protein expression in PPARbeta siRNA transfected mouse C2C12 myotubes at 1 uM after 24 hrs by immunoblot method relative to control. In kind it is functional, cell-based.
Test [27] has as its system C2C12. Kind of test: Induction of SIRT1 protein expression in mouse C2C12 myotubes at 1 uM after 24 hrs by immunoblot method. In kind it is functional, cell-based.
The species entered for test [28] is Mus musculus. Kind of test: Activation of AMPK in mouse C2C12 myotubes assessed as increase in expression of phosphorylated AMPK at Thr-172 residue at 1 uM after 24 hrs by immunoblot method.

SMILES strings stand for the structures. Active and inactive are the calls of the source. The calls are words filed in the database; no cut-off is given here.

By EC50 is commonly meant the concentration needed to bring the measured effect to its halfway point. The Kd is the constant that tells how readily two partners part at equilibrium. Consider `COc1cc([C@H]2OC[C@H]3[C@@H]2CO[C@@H]3c2cc(OC)c(O)c(OC)c2)cc(OC)c1O` [SYRINGARESINOL], for which the Activity result in test [1] is “Dose-dependent effect”; in the test with C2C12 [10], “Dose-dependent effect”; in the test with C2C12 [11] it was 14%; in the test on C2C12 [12] it was 18%. For the same compound, the EC50 in test [2] came out at 18.1 µM. The dissociation constant Kd in test [3] was determined as 27.6 µM. Further, the “fold change (FC)” value in the test on C2C12 [4] is given as >2. The result (in the test on C2C12 [5]; in test [8]; in [9]; with C2C12 [21]; in the test with C2C12 [22]) was Active. Moreover, the result with C2C12 [6], in the test with C2C12 [7], in the test with C2C12 [13], in the test on C2C12 [14], in the test on C2C12 [15] and in the test on C2C12 [16] was inactive. Besides, the outcome in the test with C2C12 [17], in the test with C2C12 [18], with C2C12 [19] and in the test listed under Mus musculus [20] was inactive.
With `Cc1cc(SCc2sc(-c3ccc(C(F)(F)F)c(F)c3)nc2C)ccc1OCC(=O)O`, the outcome in the test on C2C12 [23], in the test on C2C12 [24], with C2C12 [25] and in the test with C2C12 [26] was inactive. Moreover, the outcome in the test with C2C12 [27] and in the test listed under Mus musculus [28] was Active.
